Assay results from patent US9259438B2, “Methods for in vitro maturation of ovarian follicles” (priority 2008, dated 2016).

Legend:
[1] = test system: primordial follicles in cultured mouse ovaries; test: Culture of postnatal day 4 mouse ovaries with PTEN inhibitor, morphological analysis; type: cell-based; settings: postnatal day 4 mouse ovaries cultured for 8 days, 10 μM inhibitor vs. carrier
Protocol: Postnatal day 4 mouse ovaries containing primordial follicles were cultured for 8 days with carrier (A) or PTEN inhibitor bpv (Hopic) (B).
Postnatal day 4 mouse ovaries were removed aseptically and the whole ovary was cultured in a Cell Strainer (40 μm pore size) (BD Biosciences, Stockholm, Sweden) in 1 ml alpha-MEM medium (Gibco-BRL) supplemented with 28 mM ascorbic acid and 0.3% (w/v) BSA, with or without 10 μM of the PTEN inhibitor bpV-HOpic (Dipotassium Bisperoxo(5-hydroxypyridine-2-carboxyl)oxovanadate (V), K2[VO(O2)2C6H4NO3]). The cultured ovaries were incubated in a humidified incubator (5% CO2, 37° C.) with one-third of the medium exchanged for fresh medium every day for the duration of the culture period. For fixation, the ovaries were washed once in PBS and fixed overnight in 4% paraformaldehyde, and embedded for morphological analysis.

Akt = test: Western blot of Akt activation (p-Akt, serine 473) in oocytes after Kit ligand treatment; type: cell-based, mouse; settings: 100 ng/ml, 2 min; PD12-14 Pten loxP/loxP; GCre+ oocytes vs. control oocytes
Protocol: Oocytes were isolated from ovaries of Pten^loxP/loxP; GCre+ and Pten^loxP/loxP mice at PD5 and PD12-14, and western blots were performed (A) Levels of p-Akt (serine 473) and total Akt in PD12-14 Pten^loxP/loxP; GCre+ and Pten^loxP/loxP oocytes. (B) Activation of Akt (p-Akt, serine 473) by Kit ligand (KL) treatment (100 ng/ml, 2 min) in PD12-14 Pten^loxP/loxP; GCre+ and Pten^loxP/loxP oocytes. Levels of Akt were used as internal controls. (C) Signaling studies in Pten^loxP/loxP; GCre+ and Pten^loxP/loxP oocytes at PD5 and PD12-14, showing levels of p-Akt (serine 473), rpS6, p-rpS6 (serine 235/6), p-mTOR (serine 2448), p-TSC2 (threonine 1462), and p-S6K (threonine 389). Levels of total Akt, mTOR, TSC2, S6K, and β-actin were used as internal controls. All experiments were repeated at least 3 times. For isolation of PD5 oocytes for western blot, 10-15 Pten^loxP/loxP; GCre+ or Pten^loxP/loxP mice were used for each lane. For isolation of PD12-14 oocytes, 3-5 Pten^loxP/loxP^P; GCre+ mice or 6-10 Pten^loxP/loxP mice were used per lane. In each lane, 30-40 μg of protein sample was loaded.
Thus, activation of the pool of primordial follicles ends up with follicle depletion. This causes POF (premature ovarian failure) in Pten^loxP/loxP; GCr+ mice. The phenotype observed in these mice resembles that of human POF (Beck-Peccoz and Persani, Orphanet. J. Rare. Dis. 2006, 1: 9). […]

Molecule | proliferation and differentiation of flattened pre-granulosa cells into cuboidal granulosa cells [1] | survival rate of follicles in the cultured ovaries [1] | activation of Akt (p-Akt, serine 473) (Akt)
Dipotassium Bisperoxo(5-hydroxypyridine-2-carboxyl)oxovanadate (V) [bpV-HOpic] | stimulates the proliferation and differentiation of flattened pre-granulosa cells | enhances the survival rate of follicles | 
Kit ligand (KL): Kit ligand, activates the PI3K pathway in growing oocytes through its oocyte surface receptor Kit (protein, UniProt P20826 26-190, looked up) Soluble KIT ligand: KEICGNPVTDNVKDITKLVANLPNDYMITLNYVAGMDVLPSHCWLRDMVIQLSLSLTTLLDKFSNISEGLSNYSIIDKLGKIVDDLVLCMEENAPKNIKESPKRPETRSFTPEEFFSIFNRSIDAFKDFMVASDTSDCVLSSTLGPEKDSRVSVTKPFMLPPVAA |  |  | activated Akt to a greater extent
